# Experimental data from patent US9604987B2, “Synthesis of autophagy inducing compound and the uses thereof” (Hong Kong Baptist University, priority 2012, dated 2017).
# Legend:
# [1] = test system: Inducible PC12 cells; experiment: HMGB1 translocation and autophagy in alpha-synuclein inducible PC12 cells; type: cell-based, rat; conditions: α-syn overexpression induced by Dox, 24 h
# Method: Inducible PC12 cells are treated with […] Dox for 24 h in the presence of Corynoxine B (Cory B), rapamycin (Rap), wortmannin (Wort) or chloroquine (CQ). The expressions of induced HA-α-syn, endogenous LC3-II and Beclin-1 are determined by Western blotting (FIG. 10A). The expression of HMGB1 in the cytosolic and nuclear fractions are determined by Western blotting (FIG. 10B). b-actin and Lamin B1 are used as relative loading controls. Data are presented as the mean±SD from three independent experiments. ^#p<0.05 vs. un-induced control; *p<0.05 vs. Dox treatment; **p<0.05 vs. Dox+Cory B treatment.
# [2] = test system: N2a Swedish APP cells; experiment: APP reduction in N2a Swedish APP cells (western blot); type: cell-based, mouse; conditions: different concentrations, with or without CQ and 3MA
# Method: N2a Swedish APP cells are incubated with different concentration of Cory and Cory B in the presence or absence of CQ and 3MA. […] Tg2567 APP mice, 3 months old JNPL P301 Tau mice and WT mice intraperitoneally are administrated with 20 mg/kg/d CoryB.
# [3] = test system: PC12 cells; experiment: Western blot of autophagy marker LC3-II in PC12 cells; type: cell-based, rat; conditions: PC12, 0-25 μM, 24 hours
# Method: Native and denatured PAGE and Western blotting analysis. Samples to be run under denaturing conditions were lysed with RIPA lysis buffer (150 mM NaCl, 50 mM Tris-HCl, 0.35% sodium deoxycholate, 1 mM EDTA, 1% NP40, 1 mM PMSF, 5 μg/ml aprotinin, 5 μg/ml leupeptin). Samples for native gels were lysed with detergent-free lysis buffer (50 mM Tris/HCl pH 7.4, 175 mM NaCl, 5 mM EDTA pH 8.0, 1 mM PMSF, 5 μg/ml aprotinin, 5 μg/ml leupeptin), and sheared 5 times through a 28-gauge needle followed by 2 times of sonication for 5 seconds according to previously described protocol. For denaturing, SDS-PAGE was performed using Tris-Glycine SDS running buffer and SDS sample buffer, and for native conditions, native-PAGE was run with detergent-free Tris-Glycine running buffer (BN2007, Invitrogen) and 4× native sample buffer (BN2003, Invitrogen) on a pre-casted native PAGE gel (BN1002BOX, Invitrogen). The proteins on the gels were then transferred to PVDF membrane (RPN303F, GE Healthcare) and processed for immunoblotting. Membranes were blocked with 5% non-fat milk and probed with the appropriate primary and secondary antibodies. The desired bands were visualized using the ECL kit (32106, Pierce). The band density was quantified using the ImageJ program and normalized to that of the control group. […]
# [4] = test system: Beclin-1; experiment: Beclin-1 expression and Beclin 1 siRNA depletion in N2a cells; type: cell-based, mouse
# Method: FIG. 7: Western blot analysis of expression level of phosphorylated mTOR (p-mTOR) or its substrate P70S6K (p-P70S6K) in N2a cells with treatment of 25 μM Cory B or 0.2 μM rapamycin for 6 hours (FIG. 7A); western blot analysis of Beclin 1 expression in N2a cells with non-target or Beclin 1-specific siRNA treatments followed by Cory B (FIG. 7B)
# To elucidate the molecular mechanism of Cory B action, the classic autophagy controlling pathway, the mTOR pathway is first examined. […] Several other pathways reported to be involved in the activation of autophagy, including AKT, AMPK, MEK/ERK, JNK, and ER stress pathways, and calcium signaling pathway (data not shown), are also tested.
# [5] = test system: α-syn/synphilin-1 aggresomes in N2a cells; experiment: α-syn/synphilin-1 aggresome formation in N2a cells; type: cell-based, mouse; conditions: 25 μM, 48 hours
# Method: α-syn and synphilin-1 are co-expressed in N2a cells to mimic aggresome formation and are treated with 25 μM Cory B or 5 mM 3-MA for 48 hours. Cells are fixed in 4% paraformaldehyde and analyzed under a fluorescence microscope. […] The inhibition of Cory B clearance of various forms of α-syn and α-syn/synphilin-1 aggresomes in the presence of 3-MA further validates that such clearance is via the autophagy pathway. Data are presented as the mean±SEM from 3 independent experiments (***p<0.001, one-way ANOVA for multiple comparison and Tukey's test as post hoc test).
compound,measurement,setting,value
"CC[C@@H]1CN2CC[C@]3(C(=O)Nc4ccccc43)C2C[C@@H]1C(=COC)C(=O)OC (stereo partly drawn) [Cory B, Corynoxine B]",cytosolic translocation of HMGB1 and autophagy,[1],restored the deficient cytosolic translocation of HMGB1 and autophagy
same,full length and CTF APP,[2],dose-dependently reduce both full length and CTF APP
same,LC3-II levels,[3],increases levels of LC3-II
same,expression of Beclin-1,[4],does not affect the expression of Beclin-1
same,Cory B-induced autophagy under Beclin-1 siRNA treatment,[4]; Beclin 1-specific siRNA,completely blocks
same,number of α-syn/synphilin-1 aggresomes,[5],dramatically decreases the number of α-syn/synphilin-1 aggresomes
